Test results published in BindingDB's records for doi:10.1021/jm9800447 (The George Washington University Medical Center, 1998).

Target: Sigma non-opioid intracellular receptor 1 (Cavia porcellus) (UniProt Q60492)
Experiment: Inhibition of [3H](+)-pentazocine binding to sigma-1 receptor in guinea pig brain membranes

Sigma non-opioid intracellular receptor 1 (Cavia porcellus), sequence (Q60492 whole entry, looked up): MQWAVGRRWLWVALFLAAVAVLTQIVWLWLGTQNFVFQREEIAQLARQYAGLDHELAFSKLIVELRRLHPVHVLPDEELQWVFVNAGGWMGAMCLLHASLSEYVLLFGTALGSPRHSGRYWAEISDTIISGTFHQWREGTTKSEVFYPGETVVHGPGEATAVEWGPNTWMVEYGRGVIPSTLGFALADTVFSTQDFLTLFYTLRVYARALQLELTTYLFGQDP

Going from `COc1ccc(S(=O)(=O)NCCN2CCCCC2)cc1I` [3-Iodo-4-methoxy-N-(2-piperidin-1-yl-ethyl)-benzenesulfonamide] to `COc1ccc(S(=O)(=O)N(C)CCN2CCCCCC2)cc1I` [N-(2-Azepan-1-yl-ethyl)-3-iodo-4-methoxy-N-methyl-benzenesulfonamide], the Ki falls from 41.8 nM to 3.11 nM (13-fold).

Compared with `CCN(CC)CCNS(=O)(=O)c1ccc(Br)cc1` [4-Bromo-N-(2-diethylamino-ethyl)-benzenesulfonamide], `CCN(CC)CCNS(=O)(=O)c1ccc(I)cc1` [N-(2-Diethylamino-ethyl)-4-iodo-benzenesulfonamide] is 2-fold lower in Ki: 10.1 nM for the first, 4.97 nM for the second. The second binds more tightly here.

First: O=S(=O)(NCCN1CCCCC1)c1ccc(Br)cc1 [4-Bromo-N-(2-piperidin-1-yl-ethyl)-benzenesulfonamide]
Second: O=S(=O)(NCCN1CCCCCC1)c1ccc(Br)cc1 [N-(2-Azepan-1-yl-ethyl)-4-bromo-benzenesulfonamide]
The Ki of the first is 2.4-fold higher: 1.54 nM for the first, 0.63 nM for the second. The second binds more tightly here.

Compared with `O=S(=O)(NCCN1CCCC1)c1ccc(Br)cc1` [4-Bromo-N-(2-pyrrolidin-1-yl-ethyl)-benzenesulfonamide], `O=S(=O)(NCCN1CCCC1)c1ccc(I)cc1` [4-Iodo-N-(2-pyrrolidin-1-yl-ethyl)-benzenesulfonamide] is 1.5-fold lower in Ki: 6.65 nM for the first, 4.3 nM for the second. The second binds more tightly here.

Going from `O=S(=O)(NCCN1CCCCC1)c1ccc(I)cc1` [4-Iodo-N-(2-piperidin-1-yl-ethyl)-benzenesulfonamide] to `O=S(=O)(NCCN1CCCCCC1)c1ccc(I)cc1` [N-(2-Azepan-1-yl-ethyl)-4-iodo-benzenesulfonamide], the Ki rises from 0.46 nM to 1.32 nM (2.9-fold).

`CN(CCN1CCCCCC1)S(=O)(=O)c1ccc(Br)cc1` [N-(2-Azepan-1-yl-ethyl)-4-bromo-N-methyl-benzenesulfonamide] and `CN(CCN1CCCCCC1)S(=O)(=O)c1ccc(I)cc1` [N-(2-Azepan-1-yl-ethyl)-4-iodo-N-methyl-benzenesulfonamide] are within 1.5-fold of each other in Ki: 0.18 nM for the first, 0.14 nM for the second.
